In patent US20250057859A1, “CANNABICHROMENEQUINONE AND ANALOGUES THEREOF, AND METHOD OF USING COMPOSITIONS THEREOF AS ANTI-INFLAMMATORY AGENTS” (Juva Life, Inc., priority 2021, published 2025):

Experiments:
[1] = test system: IL-6; assay: IL-6 secretion assay in human PBMCs (LPS-stimulated, ELISA); type: cell-based; details: PBMC, LPS 100 ng/mL 6 hr, read-out: IL6 inhibitory activity IC50
Protocol: Fetal bovine serum (FBS) was obtained from ThermoFisher (Cat #16000044). • Other reagents: 96well TC plates were obtained from ThermoFisher (Cat #07-2000-90). LPS was obtained from Sigma (Cat #L3024).
IL-6 was assessed using a standard ELISA protocol. Cryopreserved PBMCs were thawed in a water bath and transferred to 50 mL polypropylene tubes. The cells were washed two times with 25 mL of RPMI medium supplemented with 5% of heat-inactivated FBS and re-suspended at a density of 4.5^10^6 cells/mL. The cells were plated into 96 well TC late (100 uL/well). Serially diluted compound was added to the cells in duplicate wells for each concentration. Control wells received DMSO only (0.3% final). The cells were pre-incubated with compound for 1 hr. After pre-incubation, the cells were stimulated by LPS (100 ng/mL) for 6 hr. Control samples with and without LPS in the absence of compound were assembled in each test plate. IL-6 was detected in media supernatants by using a sandwich anti-IL-6 ELISA kit (BD Biosciences) according to protocol provided by the manufacturer. ELISA readout (optical density at 450 nm) is commensurable with the amount of IL-6 produced by the cells. Assay window was determined in each experiment by comparing average OD450 values in stimulated and un-stimulated samples in the absence of compound. ELISA calibration was performed in each detection plate using serially diluted recombinant human IL-6, to ensure that OD450 values for all test samples were within linear range of detection.%-Inhibition by compound was calculated using following equation:
[formula] • where OD450100% is optical density in control samples stimulated with LPS without compound, OD4500% is optical density in unstimulated control samples, and OD450compound is optical density in a sample stimulated with LPS in the presence of compound.
(§1) The calculated %-Inh values were plotted against compound concentration. To determine IC50 values, dose-response curves were fitted by a 4-parameter sigmoid inhibition model using XLFit® software (IDBS).

[2] = test system: IFN gamma; assay: IFN gamma secretion assay in human PBMCs (PHA-M-stimulated, ELISA); type: cell-based; details: PBMC, PHA-M 10 ug/mL 40 hr, read-out: IFNγ inhibitory activity IC50
Protocol: Fetal bovine serum (FBS) was obtained from ThermoFisher (Cat #16000044). • Other reagents: 96well TC plates were obtained from ThermoFisher (Cat #07-2000-90).
IFN-gamma was assessed using a standard ELISA protocol. Cryopreserved PBMCs were thawed in a water bath and transferred to 50 mL polypropylene tubes. The cells were washed two times with 25 mL of RPMI medium supplemented with 5% of regular FBS and re-suspended at a density of 1.5^10^6 cells/mL. The cells were plated into 96 well TC late (100 uL/well). Serially diluted compound was added to the cells in duplicate wells for each concentration. Control wells received DMSO only (0.3% final). The cells were pre-incubated with compound for 2 hr. After pre-incubation, the cells were stimulated by PHA-M (10 ug/mL) for 40 hr. Control samples with and without PHA-M in the absence of compound were assembled in each test plate. IFNg was detected in media supernatants by using a sandwich anti-IFNg ELISA kit (BD Biosciences) according to protocol provided by the manufacturer. ELISA readout (optical density at 450 nm) is commensurable with the amount of IFNg produced by the cells. Assay window was determined in each experiment by comparing average OD450 values in stimulated and un-stimulated samples in the absence of compound. ELISA calibration was performed in each detection plate using serially diluted recombinant human IFN gamma, to ensure that OD450 values for all test samples were within linear range of detection.%-Inhibition by compound was calculated using following equation:
[formula] • where OD450100% is optical density in control samples stimulated with PHA-M without compound, OD4500% is optical density in unstimulated control samples, and OD450compound is optical density in a sample stimulated with PHA-M in the presence of compound.
as §1

Structure (SMILES): CC(C)=CCCC1(C)C=CC2=C(O1)C(=O)c1ccccc1C2=O (stereo not shown) [Formula XXVII]
- IC50 [1]: > 10 µM
- IC50 [2]: > 10 µM

Structure (SMILES): CCCCCC1=C(NCC)C(=O)C2=C(OC(C)(CCC=C(C)C)C=C2)C1=O (stereo not shown) [Formula XXVIII]
- IC50 [1]: > 10 µM
- IC50 [2]: > 10 µM

Structure (SMILES): CCCCCc1cc(OC(C)=O)c2c(c1OC(C)=O)OC(C)(CCC=C(C)C)C=C2 (stereo not shown) [Formula XXIII]
- IC50 [1]: 8.7 µM
- IC50 [2]: 0.48 µM

Structure (SMILES): CCCCCc1cc(OC)c2c(c1OC)OC(C)(CCC=C(C)C)C=C2 (stereo not shown) [Formula XXIV]
- IC50 [1]: 14.4 µM
- IC50 [2]: 4.2 µM

Structure (SMILES): CCCCCC1=CC(=O)C2=C(OC(C)(CCC=C(C)C)C=C2)C1=O (stereo not shown) [Formula II]
- IC50 [1]: 1.2 µM
- IC50 [2]: 0.39 µM

Structure (SMILES): CCCCCC1=CC(=O)C2=C(O[C@](C)(CCC=C(C)C)C=C2)C1=O [Formula XXVI]
- IC50 [1]: 1.07 µM
- IC50 [2]: 0.31 µM

Structure (SMILES): CCCCCc1cc(O)c2c(c1O)OC(C)(CCC=C(C)C)C=C2 (stereo not shown) [Formula XXII]
- IC50 [1]: > 10 µM
- IC50 [2]: 1.97 µM

Structure (SMILES): CCCCCC1=C(NCCC)C(=O)C2=C(OC(C)(CCC=C(C)C)C=C2)C1=O (stereo not shown) [Formula XXV]
- IC50 [1]: 9.3 µM
- IC50 [2]: > 10 µM
